Experimental data from ChEMBL document CHEMBL3526019, “Novel cytochrome P450-mediated ring opening of the 1,3,4-oxadiazole in setileuton, a 5-lipoxygenase inhibitor” (Drug Metab Dispos, 2011).

Assays:
Cytochrome P450 1A2 [1] = biological target: T1, Cytochrome P450 1A2 (Rattus norvegicus, UniProt P04799); test: Activity of CYP1A2 in rat liver microsomes assessed as enzyme mediated compound formation treated with 10 uM setileuton after 2 mins in presence of NADPH (reference value: 8.10 +/- 2.26 nM); type: ADME
T1 sequence (P04799 whole entry): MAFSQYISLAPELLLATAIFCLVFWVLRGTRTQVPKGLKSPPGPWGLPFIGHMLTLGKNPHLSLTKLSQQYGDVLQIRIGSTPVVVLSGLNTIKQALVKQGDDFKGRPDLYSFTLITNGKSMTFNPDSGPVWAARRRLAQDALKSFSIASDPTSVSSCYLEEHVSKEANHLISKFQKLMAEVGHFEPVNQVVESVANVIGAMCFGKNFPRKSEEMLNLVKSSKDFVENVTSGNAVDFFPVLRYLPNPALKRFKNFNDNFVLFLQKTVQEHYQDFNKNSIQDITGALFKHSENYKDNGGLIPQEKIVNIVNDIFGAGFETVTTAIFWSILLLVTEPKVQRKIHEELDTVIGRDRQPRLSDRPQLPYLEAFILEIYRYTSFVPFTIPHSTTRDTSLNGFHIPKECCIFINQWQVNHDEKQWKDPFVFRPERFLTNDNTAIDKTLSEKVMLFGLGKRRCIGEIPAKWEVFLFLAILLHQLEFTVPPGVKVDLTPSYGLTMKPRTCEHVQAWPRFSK

Cytochrome P450 1A2 [2] = biological target: T1, Cytochrome P450 1A2; test: Activity of CYP1A2 in rat liver microsomes assessed as enzyme mediated compound formation treated with 10 uM setileuton after 8 mins in presence of NADPH (reference value: 8.10 +/- 2.26 nM); type: ADME
Cytochrome P450 1A2 [3] = biological target: T1, Cytochrome P450 1A2; test: Activity of CYP1A2 in rat liver microsomes assessed as enzyme mediated compound formation treated with 10 uM setileuton after 5 mins in presence of NADPH (reference value: 8.10 +/- 2.26 nM); type: ADME
Cytochrome P450 1A2 [4] = biological target: T1, Cytochrome P450 1A2; test: Activity of CYP1A2 in rat liver microsomes assessed as enzyme mediated compound formation treated with 10 uM setileuton after 10 mins in absence of NADPH (reference value: 1.93 +/- 0.40 nM); type: ADME
Cytochrome P450 3A1 [5] = biological target: T2, Cytochrome P450 3A1 (Rattus norvegicus, UniProt P04800); test: Activity of rat recombinant CYP3A1 expressed in baculovirus-infected insect cells assessed as enzyme-mediated compound formation treated with setileuton at 10 uM preincubated for 3 mins measured after 30 mins in presence of 1 mM NADPH; type: ADME; conditions: 0.5 h
T2 sequence (P04800 whole entry): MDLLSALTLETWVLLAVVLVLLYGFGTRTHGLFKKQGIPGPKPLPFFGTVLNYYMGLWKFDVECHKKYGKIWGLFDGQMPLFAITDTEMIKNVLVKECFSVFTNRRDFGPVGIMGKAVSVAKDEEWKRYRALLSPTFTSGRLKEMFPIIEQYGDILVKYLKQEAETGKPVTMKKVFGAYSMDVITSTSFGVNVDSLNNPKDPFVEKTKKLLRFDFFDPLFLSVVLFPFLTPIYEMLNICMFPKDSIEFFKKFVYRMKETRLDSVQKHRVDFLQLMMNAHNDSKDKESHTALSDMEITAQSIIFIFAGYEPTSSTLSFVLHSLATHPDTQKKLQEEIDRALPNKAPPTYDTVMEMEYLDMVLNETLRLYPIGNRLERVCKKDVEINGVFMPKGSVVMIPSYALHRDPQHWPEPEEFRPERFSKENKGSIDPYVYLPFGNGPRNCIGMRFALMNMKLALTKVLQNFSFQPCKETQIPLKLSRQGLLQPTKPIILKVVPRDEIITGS

Cytochrome P450 1A1 [6] = biological target: T3, Cytochrome P450 1A1 (Rattus norvegicus, UniProt P00185); test: Activity of rat recombinant CYP1A1 expressed in baculovirus-infected insect cells assessed as enzyme-mediated compound formation treated with setileuton at 10 uM preincubated for 3 mins measured after 30 mins in presence of 1 mM NADPH; type: ADME; conditions: 0.5 h
T3 sequence (P00185 whole entry): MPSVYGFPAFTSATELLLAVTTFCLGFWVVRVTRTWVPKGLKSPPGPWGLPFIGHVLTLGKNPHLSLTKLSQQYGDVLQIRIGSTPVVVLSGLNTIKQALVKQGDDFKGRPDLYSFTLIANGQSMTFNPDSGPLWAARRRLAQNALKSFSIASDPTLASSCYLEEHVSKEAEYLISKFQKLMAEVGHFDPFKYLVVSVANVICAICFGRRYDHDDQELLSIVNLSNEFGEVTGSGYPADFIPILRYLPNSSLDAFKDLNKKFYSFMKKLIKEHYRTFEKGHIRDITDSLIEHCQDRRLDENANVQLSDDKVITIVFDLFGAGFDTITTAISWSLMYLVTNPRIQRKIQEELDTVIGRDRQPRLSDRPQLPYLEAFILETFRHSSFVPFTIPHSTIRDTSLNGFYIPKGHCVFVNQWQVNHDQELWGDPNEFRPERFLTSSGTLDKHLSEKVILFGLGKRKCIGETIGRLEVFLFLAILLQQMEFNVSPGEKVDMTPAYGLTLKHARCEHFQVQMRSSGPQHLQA

Liver microsome [7] = test: Drug level in NADPH fortified rat liver microsomes treated with setileuton; type: ADME
Cytochrome P450 1A2 [8] = biological target: T1, Cytochrome P450 1A2; test: Activity of rat recombinant CYP1A2 expressed in baculovirus-infected insect cells assessed as enzyme-mediated compound formation treated with setileuton at 10 uM preincubated for 3 mins measured after 30 mins in presence of 1 mM NADPH; type: ADME; conditions: 0.5 h
Cytochrome P450 1A2 [9] = biological target: T1, Cytochrome P450 1A2; test: Activity of CYP1A2 in rat liver microsomes assessed as enzyme mediated compound formation treated with 10 uM setileuton after 2 mins in absence of NADPH (reference value: 1.93 +/- 0.40 nM); type: ADME
Cytochrome P450 1A2 [10] = biological target: T1, Cytochrome P450 1A2; test: Activity of CYP1A2 in rat liver microsomes assessed as enzyme mediated compound formation treated with 10 uM setileuton after 10 mins in presence of NADPH (reference value: 8.10 +/- 2.26 nM); type: ADME
Cytochrome P450 1A2 [11] = biological target: T1, Cytochrome P450 1A2; test: Activity of CYP1A2 in rat liver microsomes assessed as enzyme mediated compound formation treated with 10 uM setileuton after 5 mins in absence of NADPH (reference value: 1.93 +/- 0.40 nM); type: ADME
Cytochrome P450 3A2 [12] = biological target: T4, Cytochrome P450 3A2 (Rattus norvegicus, UniProt P05183); test: Activity of rat recombinant CYP3A2 expressed in baculovirus-infected insect cells assessed as enzyme-mediated compound formation treated with setileuton at 10 uM preincubated for 3 mins measured after 30 mins in presence of 1 mM NADPH; type: ADME; conditions: 0.5 h
T4 sequence (P05183 whole entry): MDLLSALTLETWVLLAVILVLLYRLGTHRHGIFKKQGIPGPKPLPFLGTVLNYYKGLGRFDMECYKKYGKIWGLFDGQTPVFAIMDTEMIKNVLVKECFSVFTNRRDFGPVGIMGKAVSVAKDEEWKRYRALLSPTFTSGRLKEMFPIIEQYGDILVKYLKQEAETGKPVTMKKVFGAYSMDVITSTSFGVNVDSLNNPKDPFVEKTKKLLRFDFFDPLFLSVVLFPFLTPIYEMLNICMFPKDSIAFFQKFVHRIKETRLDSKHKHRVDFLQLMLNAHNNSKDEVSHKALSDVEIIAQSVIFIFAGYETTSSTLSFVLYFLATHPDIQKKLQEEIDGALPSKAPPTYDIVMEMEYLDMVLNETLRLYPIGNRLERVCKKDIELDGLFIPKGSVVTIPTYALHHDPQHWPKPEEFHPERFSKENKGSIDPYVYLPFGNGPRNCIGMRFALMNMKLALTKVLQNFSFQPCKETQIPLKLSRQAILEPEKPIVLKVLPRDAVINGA

Cytochrome P450 1A2 [13] = biological target: T1, Cytochrome P450 1A2; test: Activity of CYP1A2 in rat liver microsomes assessed as enzyme mediated compound formation treated with 10 uM setileuton after 8 mins in absence of NADPH (reference value: 1.93 +/- 0.40 nM); type: ADME
[14] = Drug level in rat urine treated with setileuton; type: ADME, tissue-based; conditions: in vivo
Liver microsome [15] = test: Drug metabolism in NADPH fortified rat liver microsomes assessed as N-((4-(4-fluorophenyl)-2-oxochroman-7-yl)methyl)-2-((S)-2-hydroxy-2-(trifluoromethyl)butanoyl)hydrazinecarboxamide level; type: ADME
Cytochrome P450 3A1 [16] = biological target: T2, Cytochrome P450 3A1; test: (§1) Activity of rat recombinant CYP3A1 expressed in baculovirus-infected insect cells assessed as enzyme-mediated N-((4-(4-fluorophenyl)-2-oxochroman-7-yl)methyl)-2-((S)-2-hydroxy-2-(trifluoromethyl)butanoyl)hydrazinecarboxamide formation preincubated for 3 mins by Michaelis-Menten equation in presence of NADPH for 10 mins; type: ADME
Cytochrome P450 3A1 [17] = biological target: T2, Cytochrome P450 3A1; test: (§2) Activity of rat recombinant CYP3A1 expressed in baculovirus-infected insect cells assessed as enzyme-mediated N-((4-(4-fluorophenyl)-2-oxochroman-7-yl)methyl)-2-((S)-2-hydroxy-2-(trifluoromethyl)butanoyl)hydrazinecarboxamide formation at 10 uM preincubated for 3 mins measured after 30 mins in presence of 1 mM NADPH; type: ADME; conditions: 0.5 h
Cytochrome P450 3A2 [18] = biological target: T4, Cytochrome P450 3A2; test: as §2, with “CYP3A2” for “CYP3A1”; type: ADME; conditions: 0.5 h
Liver microsome [19] = test: Drug metabolism in rat liver microsomes assessed as N-((4-(4-fluorophenyl)-2-oxochroman-7-yl)methyl)-2-((S)-2-hydroxy-2-(trifluoromethyl)butanoyl)hydrazinecarboxamide formation by Michaelis-Menten equation in presence of 1 mM NADPH for 10 mins; type: ADME
Cytochrome P450 1A2 [20] = biological target: T1, Cytochrome P450 1A2; test: as §2, with “CYP1A2” for “CYP3A1”; type: ADME; conditions: 0.5 h
Cytochrome P450 1A1 [21] = biological target: T3, Cytochrome P450 1A1; test: as §2, with “CYP1A1” for “CYP3A1”; type: ADME; conditions: 0.5 h
Cytochrome P450 1A2 [22] = biological target: T1, Cytochrome P450 1A2; test: as §1, with “CYP1A2” for “CYP3A1”; type: ADME
[23] = Drug metabolism in rat urine assessed as N-((4-(4-fluorophenyl)-2-oxochroman-7-yl)methyl)-2-((S)-2-hydroxy-2-(trifluoromethyl)butanoyl)hydrazinecarboxamide level; type: ADME, tissue-based
[24] = substrate: CC[C@](O)(c1nnc(NCc2ccc3c(-c4ccc(F)cc4)cc(=O)oc3c2)o1)C(F)(F)F; test: as §1, with “CYP3A2” for “CYP3A1”; type: ADME
[25] = substrate: CC[C@](O)(c1nnc(NCc2ccc3c(-c4ccc(F)cc4)cc(=O)oc3c2)o1)C(F)(F)F; test: as §1, with “CYP1A1” for “CYP3A1”; type: ADME

Molecule: CC[C@](O)(C(=O)NNC(=O)NCc1ccc2c(-c3ccc(F)cc3)cc(=O)oc2c1)C(F)(F)F
- Drug metabolism (Cytochrome P450 1A2 [1]): 29.74 nM
- Drug metabolism (Cytochrome P450 1A2 [2]): 74.89 nM
- Drug metabolism (Cytochrome P450 1A2 [3]): 57.93 nM
- Drug metabolism (Cytochrome P450 1A2 [4]): 1.56 nM
- Drug metabolism (Cytochrome P450 3A1 [5]): metabolite_detected
- Drug metabolism (Cytochrome P450 1A1 [6]): metabolite_detected
- Drug metabolism (Liver microsome [7]): metabolite_detected
- Drug metabolism (Cytochrome P450 1A2 [8]): metabolite_detected
- Drug metabolism (Cytochrome P450 1A2 [9]): 1.81 nM
- Drug metabolism (Cytochrome P450 1A2 [10]): 100.4 nM
- Drug metabolism (Cytochrome P450 1A2 [11]): 1.66 nM
- Drug metabolism (Cytochrome P450 3A2 [12]): metabolite_detected
- Drug metabolism (Cytochrome P450 1A2 [13]): 1.43 nM
- Drug metabolism [14]: metabolite_detected

Molecule: CC[C@](O)(c1nnc(NCc2ccc3c(-c4ccc(F)cc4)cc(=O)oc3c2)o1)C(F)(F)F [SETILEUTON]
- Drug metabolism (Liver microsome [15]): metabolite_detected
- S50 (Cytochrome P450 3A1 [16]): 8.2 µM
- Drug metabolism (Cytochrome P450 3A1 [17]): metabolite_detected
- Drug metabolism (Cytochrome P450 3A2 [18]): metabolite_detected
- S50 (Liver microsome [19]): 10.6 µM
- Drug metabolism (Cytochrome P450 1A2 [20]): metabolite_detected
- Drug metabolism (Cytochrome P450 1A1 [21]): metabolite_detected
- S50 (Cytochrome P450 1A2 [22]): 8.2 µM
- Drug metabolism [23]: metabolite_detected

B1: Cytochrome P450 3A2 (Rattus norvegicus) (protein)
chain: T4 sequence (P05183 whole entry)
- Km [24]: 2.2 µM

B2: Cytochrome P450 1A1 (Rattus norvegicus) (protein)
chain: T3 sequence (P00185 whole entry)
- Km [25]: 6 µM
